Data set [1] concerns the target MraYSA (S. aureus MraY) (Staphylococcus aureus, UniProt Q2FZ93). Briefly: fluorescence assay of dansylated lipid I formation. It is filed as biochemical.
Data set [2] in a line: in vitro. More on the design: WST-8 cell viability assay in HepG2 cells. To be noted: human, hepg2 cells; read-out: IC50. The protocol: Cells were regularly passed to maintain exponential growth. HepG2 cells were sowed by 1.0 × 10^4 cells for each well in 96-well plate and cultured at 37 °C under 5% CO2 in air for 24 h. The cells were treated with a solution of test compounds in DMSO at various concentration and incubated at 37 °C under 5% CO2 in air for 24 h. After that, the WST-8 (Dojindo) cell proliferation assay was used. Cell viability was indicated as a percentage of the negative control (cells treated with DMSO only) and that value was fixed at 100%.

The test system of data set [3] is T1, E. faecalis(VRE) ATCC 51299.
T1 construct: ATCC 51299 (VRE)
Briefly: microbe, parasite or virus in culture. More on the design: CLSI broth microdilution MIC in MHB-II, single trial. To be noted: Enterococcus faecalis, 18 h; read-out: 6 MIC. As to the method:
(§1) MICs were determined by a microdilution broth method as recommended by the CLSI with MHB-II. For MICs of stable analogues, a 2-fold dilution of each compound was prepared in DMSO at 100-fold of the final concentration. The strains were inoculated with 5 × 10^5 cfu/mL in 96-well plates (each 100 μL/well), and 1 μL of DMSO solutions of the samples were added (contained less than 1% DMSO). The plates were incubated at 37 °C for 18 h and then MICs were determined. MICs of stable analogues in Table 1 were the highest value in three trials. MICs in Supplementary Table 1 were determined in one trial.

The test system of data set [4] is T2, E. faecium ATCC 35667.
T2 construct: ATCC 35667
Kind of data set: microbe, parasite or virus in culture. To be noted: Enterococcus faecium, ATCC35667, 18 h; read-out: 6 MIC. More on the design: CLSI broth microdilution MIC in MHB-II, single trial. The protocol: as §1

Data set [5] deals with T3, E. faecium(VRE) ATCC 51559.
T3 construct: ATCC 51559 (VRE)
Kind of data set: microbe, parasite or virus in culture. More on the design: CLSI broth microdilution MIC in MHB-II, single trial. To be noted: Enterococcus faecium, 18 h; read-out: 6 MIC. The protocol: as §1

Data set [6] relates to T4, E. faecium(VRE) ATCC 51858.
T4 construct: ATCC 51858 (VRE)
Briefly: microbe, parasite or virus in culture. To be noted: Enterococcus faecium, 18 h; read-out: 6 MIC. More on the design: CLSI broth microdilution MIC in MHB-II, single trial. As to the method:
as §1

Data set [7] deals with T5, S. aureus ATCC 29213.
T5 construct: ATCC 29213
Kind of data set: microbe, parasite or virus in culture. To be noted: Staphylococcus aureus, ATCC29213, 18 h; read-out: 6 MIC. More on the design: CLSI broth microdilution MIC in MHB-II, single trial. As to the method:
as §1

For data set [8], the system named is T6, Staphylococcus aureus MRSA JE2.
T6 construct: JE2 (MRSA)
Briefly: microbe, parasite or virus in culture. Also noted: CLSI broth microdilution MIC in MHB-II, single trial. To be noted: 18 h, read-out: 6 MIC. As to the method: as §1

For data set [9], the system named is T7, Enterococcus faecalis 21.
T7 construct: 21
Briefly: microbe, parasite or virus in culture. More on the design: CLSI broth microdilution MIC in MHB-II. To be noted: Enterococcus faecalis, 21, 18 h, read-out: MIC. As to the method:
as §1

The test system of data set [10] is T8, Enterococcus faecalis 22.
T8 construct: 22
Kind of data set: microbe, parasite or virus in culture. To be noted: Enterococcus faecalis, 22, 18 h, read-out: MIC. More on the design: CLSI broth microdilution MIC in MHB-II. The protocol:
as §1

Data set [11] deals with T9, Enterococcus faecalis 28.
T9 construct: 28
Briefly: microbe, parasite or virus in culture. Also noted: CLSI broth microdilution MIC in MHB-II. To be noted: Enterococcus faecalis, 28, 18 h, read-out: MIC. The protocol:
as §1

Data set [12] deals with Enterococcus faecium 1. Kind of data set: microbe, parasite or virus in culture. Also noted: CLSI broth microdilution MIC in MHB-II. To be noted: Enterococcus faecium, 1, 18 h, read-out: MIC. The protocol:
as §1

The test system of data set [13] is Enterococcus faecium 4. Kind of data set: microbe, parasite or virus in culture. More on the design: CLSI broth microdilution MIC in MHB-II. To be noted: Enterococcus faecium, 4, 18 h, read-out: MIC. As to the method:
as §1

For data set [14], the system named is Enterococcus faecium 5. Kind of data set: microbe, parasite or virus in culture. Also noted: CLSI broth microdilution MIC in MHB-II. To be noted: Enterococcus faecium, 5, 18 h, read-out: MIC. As to the method: as §1
The subject of data set [15] is Enterococcus faecium 8. Briefly: microbe, parasite or virus in culture. To be noted: Enterococcus faecium, 8, 18 h, read-out: MIC. More on the design: CLSI broth microdilution MIC in MHB-II. As to the method:
as §1

Data set [16] has as its system T10, Staphylococcus aureus #1958.
T10 construct: #1958
Briefly: microbe, parasite or virus in culture. More on the design: CLSI broth microdilution MIC in MHB-II. To be noted: Staphylococcus aureus, 18 h, read-out: MIC. The protocol: as §1

The test system of data set [17] is T11, Staphylococcus aureus #2071.
T11 construct: #2071
Kind of data set: microbe, parasite or virus in culture. Also noted: CLSI broth microdilution MIC in MHB-II. To be noted: Staphylococcus aureus, 18 h, read-out: MIC. As to the method:
as §1

The subject of data set [18] is T12, Staphylococcus aureus #2110.
T12 construct: #2110
Briefly: microbe, parasite or virus in culture. Also noted: CLSI broth microdilution MIC in MHB-II. To be noted: Staphylococcus aureus, 18 h, read-out: MIC. The protocol: as §1

For data set [19], the system named is T13, Staphylococcus aureus #2334.
T13 construct: #2334
Kind of data set: microbe, parasite or virus in culture. More on the design: CLSI broth microdilution MIC in MHB-II. To be noted: Staphylococcus aureus, 18 h, read-out: MIC. The protocol: as §1

The subject of data set [20] is T14, Staphylococcus aureus #2931.
T14 construct: #2931
Kind of data set: microbe, parasite or virus in culture. Also noted: CLSI broth microdilution MIC in MHB-II. To be noted: Staphylococcus aureus, 18 h, read-out: MIC. The protocol: as §1

The subject of data set [21] is T15, Staphylococcus aureus #2933.
T15 construct: #2933
Briefly: microbe, parasite or virus in culture. Also noted: CLSI broth microdilution MIC in MHB-II. To be noted: Staphylococcus aureus, 18 h, read-out: MIC. The protocol:
as §1

For data set [22], the system named is T16, Staphylococcus aureus #2934.
T16 construct: #2934
Briefly: microbe, parasite or virus in culture. More on the design: CLSI broth microdilution MIC in MHB-II. To be noted: Staphylococcus aureus, 18 h, read-out: MIC. The protocol: as §1

Data set [23] relates to T17, Staphylococcus aureus #2935.
T17 construct: #2935
Briefly: microbe, parasite or virus in culture. Also noted: CLSI broth microdilution MIC in MHB-II. To be noted: Staphylococcus aureus, 18 h, read-out: MIC. As to the method:
as §1

Structures are written as SMILES. Values after ≈ are worked out from the molar mass of the structure shown.

MraYSA (S. aureus MraY), sequence (Q2FZ93 whole entry): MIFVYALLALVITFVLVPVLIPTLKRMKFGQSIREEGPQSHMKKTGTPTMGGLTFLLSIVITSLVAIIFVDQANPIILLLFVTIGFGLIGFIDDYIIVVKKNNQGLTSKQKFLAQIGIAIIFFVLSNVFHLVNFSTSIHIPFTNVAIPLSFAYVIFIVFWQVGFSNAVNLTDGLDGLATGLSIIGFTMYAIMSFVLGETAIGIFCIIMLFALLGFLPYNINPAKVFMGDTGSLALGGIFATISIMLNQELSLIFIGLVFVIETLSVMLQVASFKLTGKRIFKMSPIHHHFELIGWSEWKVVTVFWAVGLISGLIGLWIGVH

Turning to `CCCCCCCCCCCCCCCC(=O)N[C@@H](CCCCN)C(=O)Nc1cccc(CN[C@H](C(=O)O)[C@H](O[C@@H]2O[C@H](CN)[C@@H](O)[C@H]2O)[C@H]2O[C@@H](n3ccc(=O)[nH]c3=O)[C@H](O)[C@@H]2O)c1` [compound 6, analogue 6], 0.0037 µM corresponded to half-maximal inhibition in data set [1] (IC50). Also, in data set [2], the CC50 at 24 h came to 16 µM. The MIC in data set [3] was found to be 0.5 µg/mL (≈ 0.543 µM); in data set [4], 0.5 µg/mL (≈ 0.543 µM); in [5] it was 1 µg/mL (≈ 1.09 µM); in data set [6], 2 µg/mL (≈ 2.17 µM); in [7], 1 µg/mL (≈ 1.09 µM); in [8], 1 µg/mL (≈ 1.09 µM). Also, the MIC came to 0.25 µg/mL (≈ 0.272 µM) in data set [9]; 0.5 µg/mL (≈ 0.543 µM) in data set [10]; 0.13 µg/mL (≈ 0.141 µM) in data set [11]; 1 µg/mL (≈ 1.09 µM) in data set [12]; 0.5 µg/mL (≈ 0.543 µM) in [13]; 1 µg/mL (≈ 1.09 µM) in data set [14]. Also, the MIC in data set [15] was found to be 0.5 µg/mL (≈ 0.543 µM); in data set [16], 1 µg/mL (≈ 1.09 µM); in data set [17], 64 µg/mL (≈ 69.6 µM); in [18], 2 µg/mL (≈ 2.17 µM); in data set [19], 1 µg/mL (≈ 1.09 µM); in data set [20], 0.5 µg/mL (≈ 0.543 µM). In addition, the MIC in data set [21] amounted to 0.5 µg/mL (≈ 0.543 µM); in data set [22] it was 0.5 µg/mL (≈ 0.543 µM); in data set [23] it was 1 µg/mL (≈ 1.09 µM).

The values are drawn from publication PMC11178787, “Development of a natural product optimization strategy for inhibitors against MraY, a promising antibacterial target” (Nature Communications, 2024).
